Laboratory results published in patent US20220331303A1, “USE OF AN OREXIN 2 RECEPTOR AGONIST FOR THE TREATMENT OF EXCESSIVE SLEEPINESS” (Takeda Pharmaceutical Company Limited, priority 2019, published 2022).
“And” between values parts separate entries of the source, which are not always exact repeats. Equal values may be shown once.

System: sleep-deprived healthy volunteers
Experiment: Maintenance of wakefulness test (MWT) in sleep-deprived healthy volunteers
Format: in vivo, human
Procedure: The primary objective of this study was to determine the effect of Compound A (methyl (2R,3S)-3-((methylsulfonyl)amino)-2-(((cis-4-phenylcyclohexyl)oxy)methyl)piperidine-1-carboxylate), 44 mg (low dose [LD]) and 112 mg (high dose [HD]), after a single IV dose (compared to placebo) on promoting wakefulness as measured by sleep latency on the MWT (performed at approximately 2, 4, 6, and 8 hours post-dosing starting at approximately 1:00 AM and then at approximate times of 3:00, 5:00, and 7:00 AM) in sleep-deprived healthy volunteers.
This was a phase 1b, single-center, randomized, double-blind, double-dummy, placebo- and active-controlled, 4-period Williams design crossover study to evaluate the PK, PD, and safety of Compound A in sleep-deprived healthy volunteers. Compound A was administered as a 9-hour IV infusion.
Healthy adult male subjects aged 18 to 40 years, inclusive, who satisfied the inclusion and exclusion criteria were enrolled in the trial. On Day 1 of treatment period 1, eligible subjects were equally randomized to 4 treatment sequence groups (sequence 1 to 4) which defined the order of administration for Compound A LD, Compound A HD (both delivered as a 9-hour IV infusion), modafinil 300 mg, and placebo.
During the day before dosing on Day 1, participants were administered the KSS at scheduled timepoints. A practice MWT session was performed on Day 1 treatment period 1 (only once during the entire study) to familiarize subjects with the procedures. Study drug was administered in the clinic in the evening on Day 1 of each treatment period. Subjects underwent the MWT and KSS at specified timepoints after the start of the infusion. Subjects were required to stay awake between the MWT tests. Following completion of the IV infusion on Day 2, subjects underwent an additional MWT test. When the final MWT test and cognitive testing were completed, subjects were allowed to sleep (recovery sleep) for approximately 6 hours. PSG recording was collected during this time. Subjects were discharged from the unit after completion on Day 2 with continuing actigraphy upon discharge (to begin on Day −6 before the next treatment period). The interval between each subsequent treatment period was at least 7 days to ensure that the subject's circadian rhythm had returned to a normal cycle. Subject's vital signs, including BP, were monitored during the dosing and testing period. Blood samples for determination of Compound A plasma concentrations were collected at specified timepoints on Days 1 and 2 of each treatment period. Subjects completed the Columbia-Suicide Severity Rating Scale (C-SSRS) during screening, before study drug administration, and before discharge on Day 2 of each treatment period.
Primary endpoint: Latency for each MWT, defined as time to sleep onset.

[1] = Compound A 44 mg (LD), 2 hours post infusion start
[2] = Compound A 44 mg (LD), 4 hours post infusion start
[3] = Compound A 44 mg (LD), 6 hours post infusion start
[4] = Compound A 44 mg (LD), 8 hours post infusion start
[5] = Compound A 44 mg (LD), average overall during infusion
[6] = Compound A 44 mg (LD, printed ED), 2 hours post infusion start
[7] = Compound A 44 mg (LD, printed ED), 4 hours post infusion start
[8] = Compound A 44 mg (LD, printed ED), 8 hours post infusion start
[9] = Compound A 44 mg, after the end of infusion (1 hour post end of infusion)
[10] = Compound A 112 mg (HD), 2 hours post infusion start
[11] = Compound A 112 mg (HD), 4 hours post infusion start

Structure (SMILES): COC(=O)N1CCC[C@H](NS(C)(=O)=O)[C@@H]1CO[C@H]1CC[C@@H](c2ccccc2)CC1 [Compound A, methyl (2R,3S)-3-((methylsulfonyl)amino)-2-(((cis-4-phenylcyclohexyl)oxy)methyl)piperidine-1-carboxylate]
- Average total wake time (MWT), LS mean difference vs placebo (Compound A 44 mg): 16.36 min
- Total sleep time (MWT) compared to placebo (Compound A 44 mg): not significantly different than placebo
- Latency to Sleep Onset on MWT, LS Mean [1]: 35.74 min
- Latency to Sleep Onset on MWT, LS Mean Difference vs placebo [1]: 20.06 min
- Stage N1 Duration (MWT), LS Mean [1]: 0.13 min
- Stage N1 Duration (MWT), LS Mean Difference vs placebo [1]: -1.02 min
- Stage N2 Duration (MWT), LS Mean [1]: 0.24 min
- Stage N2 Duration (MWT), LS Mean Difference vs placebo [1]: -0.61 min
- Total Microsleeps (MWT), LS Mean [1]: 0.38
- Total Microsleeps (MWT), LS Mean Difference vs placebo [1]: −1.42
- Duration Total Microsleeps (MWT), LS Mean [2]: 10.39 s
- Duration Total Microsleeps (MWT), LS Mean Difference vs placebo [2]: -1.91 s
- Stage N1 Duration (MWT), LS Mean [2]: 0.52 min
- Stage N1 Duration (MWT), LS Mean Difference vs placebo [2]: -1.13 min
- Stage N2 Duration (MWT), LS Mean [2]: 0.51 min
- Stage N2 Duration (MWT), LS Mean Difference vs placebo [2]: -0.64 min
- Total Microsleeps (MWT), LS Mean [2]: 2.21
- Total Microsleeps (MWT), LS Mean Difference vs placebo [2]: −0.14
- Duration Total Microsleeps (MWT), LS Mean [3]: 11.84 s
- Duration Total Microsleeps (MWT), LS Mean Difference vs placebo [3]: 4.44 s
- Latency to Sleep Onset on MWT, LS Mean [3]: 20.71 min
- Latency to Sleep Onset on MWT, LS Mean Difference vs placebo [3]: 14.56 min
- Stage N1 Duration (MWT), LS Mean [3]: 1.80 min
- Stage N1 Duration (MWT), LS Mean Difference vs placebo [3]: 0.65 min
- Stage N2 Duration (MWT), LS Mean [3]: 2.63 min
- Stage N2 Duration (MWT), LS Mean Difference vs placebo [3]: 2.13 min
- Total Microsleeps (MWT), LS Mean [3]: 2.32
- Total Microsleeps (MWT), LS Mean Difference vs placebo [3]: 1.07
- Latency to Sleep Onset on MWT, LS Mean [4]: 13.13 min
- Latency to Sleep Onset on MWT, LS Mean Difference vs placebo [4]: 9.60 min
- Stage N1 Duration (MWT), LS Mean [4]: 1.57 min
- Stage N1 Duration (MWT), LS Mean Difference vs placebo [4]: 0.42 min
- Stage N2 Duration (MWT), LS Mean [4]: 3.74 min
- Stage N2 Duration (MWT), LS Mean Difference vs placebo [4]: 2.64 min
- Total Microsleeps (MWT), LS Mean [4]: 2.10
- Total Microsleeps (MWT), LS Mean Difference vs placebo [4]: 0.80
- Duration Total Microsleeps (MWT), LS Mean [5]: 8.89 s
- Duration Total Microsleeps (MWT), LS Mean Difference vs placebo [5]: -0.18 s
- Latency to Sleep Onset on MWT, LS Mean [5]: 25.40 min and 25.40 (1.955) min
- Latency to Sleep Onset on MWT, LS Mean Difference vs placebo [5]: 16.79 min and 16.8 min and 16.79 (2.682) min
- Stage N1 Duration (MWT), LS Mean [5]: 1.01 min
- Stage N1 Duration (MWT), LS Mean Difference vs placebo [5]: -0.27 min
- Stage N2 Duration (MWT), LS Mean [5]: 1.78 min
- Stage N2 Duration (MWT), LS Mean Difference vs placebo [5]: 0.88 min
- Total Microsleeps (MWT), LS Mean [5]: 1.75
- Total Microsleeps (MWT), LS Mean Difference vs placebo [5]: 0.08
- Duration Total Microsleeps (MWT), LS Mean [6]: 1.61 s
- Duration Total Microsleeps (MWT), LS Mean Difference vs placebo [6]: -7.19 s
- Latency to Sleep Onset on MWT, LS Mean [7]: 32.04 min
- Latency to Sleep Onset on MWT, LS Mean Difference vs placebo [7]: 22.94 min
- Duration Total Microsleeps (MWT), LS Mean [8]: 11.72 s
- Duration Total Microsleeps (MWT), LS Mean Difference vs placebo [8]: 3.92 s
- Latency to Sleep Onset on MWT, LS Mean (SE) [9]: 2.49 (2.241)
- Latency to Sleep Onset on MWT, LS Mean Difference vs placebo, Estimate (SE) [9]: −2.16 (2.752)
- Average total wake time (MWT), LS mean difference vs placebo (Compound A 112 mg): 29.59 min
- Sleep latency on the MWT during infusion, stayed across several sessions (Compound A 112 mg): 40 min
- Total sleep time (MWT), LS mean difference vs placebo (Compound A 112 mg): -2.56 min
- Duration Total Microsleeps (MWT), LS Mean [10]: -0.02 s
- Duration Total Microsleeps (MWT), LS Mean Difference vs placebo [10]: -8.82 s
- Latency to Sleep Onset on MWT, LS Mean [10]: 40.02 min
- Latency to Sleep Onset on MWT, LS Mean Difference vs placebo [10]: 24.35 min
- Stage N1 Duration (MWT), LS Mean [10]: -0.04 min
- Stage N1 Duration (MWT), LS Mean Difference vs placebo [10]: -1.19 min
- Stage N2 Duration (MWT), LS Mean [10]: 0.00 min
- Stage N2 Duration (MWT), LS Mean Difference vs placebo [10]: -0.85 min
- Total Microsleeps (MWT), LS Mean [10]: 0.00
- Total Microsleeps (MWT), LS Mean Difference vs placebo [10]: −1.80
- Duration Total Microsleeps (MWT), LS Mean [11]: -0.02 s
- Duration Total Microsleeps (MWT), LS Mean Difference vs placebo [11]: -12.3 s
- Latency to Sleep Onset on MWT, LS Mean [11]: 40.05 min
- Latency to Sleep Onset on MWT, LS Mean Difference vs placebo [11]: 30.95 min
- Stage N1 Duration (MWT), LS Mean [11]: -0.04 min
- Stage N1 Duration (MWT), LS Mean Difference vs placebo [11]: -1.69 min
- Stage N2 Duration (MWT), LS Mean [11]: 0.00 min
